What was measured:
[1] = molecular target: T1, mitochondrial glycerophosphate dehydrogenase (mGPD) (Homo sapiens, UniProt P43304); experiment: DCIP reduction assay; format: biochemical
T1 sequence (P43304 43-727): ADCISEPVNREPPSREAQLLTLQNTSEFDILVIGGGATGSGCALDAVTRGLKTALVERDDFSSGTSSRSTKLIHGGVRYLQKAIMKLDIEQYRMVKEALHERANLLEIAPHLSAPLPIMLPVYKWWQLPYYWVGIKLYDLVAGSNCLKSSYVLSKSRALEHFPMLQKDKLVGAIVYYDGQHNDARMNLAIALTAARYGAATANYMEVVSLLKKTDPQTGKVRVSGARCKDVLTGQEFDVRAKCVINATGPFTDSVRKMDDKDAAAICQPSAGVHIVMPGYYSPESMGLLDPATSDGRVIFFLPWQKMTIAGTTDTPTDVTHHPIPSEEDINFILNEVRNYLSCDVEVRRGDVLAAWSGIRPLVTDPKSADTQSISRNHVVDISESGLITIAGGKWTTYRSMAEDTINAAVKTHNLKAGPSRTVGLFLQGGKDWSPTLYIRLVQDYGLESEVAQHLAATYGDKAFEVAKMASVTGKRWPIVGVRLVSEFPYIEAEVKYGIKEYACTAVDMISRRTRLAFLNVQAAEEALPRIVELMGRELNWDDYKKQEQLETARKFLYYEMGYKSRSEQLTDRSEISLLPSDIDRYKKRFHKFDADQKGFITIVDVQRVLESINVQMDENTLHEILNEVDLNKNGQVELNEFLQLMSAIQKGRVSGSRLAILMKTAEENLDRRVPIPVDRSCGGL

[2] = molecular target: T2, mitochondrial glycerophosphate dehydrogenase (mGPD) (Rattus norvegicus, UniProt P35571); experiment: DCIP reduction assay; format: biochemical
T2 sequence (P35571 43-727): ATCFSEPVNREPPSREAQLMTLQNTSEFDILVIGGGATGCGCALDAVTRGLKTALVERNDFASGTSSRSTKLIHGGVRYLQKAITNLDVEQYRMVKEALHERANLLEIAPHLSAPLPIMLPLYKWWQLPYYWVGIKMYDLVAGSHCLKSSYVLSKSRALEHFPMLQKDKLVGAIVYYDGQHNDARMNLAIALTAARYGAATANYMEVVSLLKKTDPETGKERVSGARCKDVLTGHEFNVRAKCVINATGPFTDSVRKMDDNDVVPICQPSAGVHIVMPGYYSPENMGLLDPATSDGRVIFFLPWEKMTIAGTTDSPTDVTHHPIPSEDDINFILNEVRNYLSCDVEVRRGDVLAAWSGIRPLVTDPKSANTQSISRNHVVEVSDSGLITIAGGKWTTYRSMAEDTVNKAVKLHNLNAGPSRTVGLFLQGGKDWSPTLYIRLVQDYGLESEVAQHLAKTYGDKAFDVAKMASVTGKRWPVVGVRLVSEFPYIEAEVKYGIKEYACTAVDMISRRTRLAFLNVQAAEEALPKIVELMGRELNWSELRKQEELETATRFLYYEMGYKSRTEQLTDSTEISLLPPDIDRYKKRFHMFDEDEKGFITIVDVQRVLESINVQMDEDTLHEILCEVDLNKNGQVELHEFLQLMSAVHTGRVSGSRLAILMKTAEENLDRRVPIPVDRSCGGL

Ki [1]: ~55 µM
Ki [2]: ~38 µM
SMILES: CN(C)C(=N)N=C(N)N [metformin]
